Data: patent US9422263B2, “Fluoro-substituted 3,5-dicyano-4-(1H-indazol-5-yl)-2,6-dimethyl-1,4-dihydropyridine derivatives and methods of use thereof” (BAYER PHARMA AKTIENGESELLSCHAFT, priority 2009, dated 2016)

Key:
[1] = target: Recombinant human c-Met protein (Homo sapiens (Human), UniProt P08581); test: c-Met receptor tyrosine kinase activity assay (NADH read-out); format: biochemical; conditions: ATP 30 μM, c-Met 30 nM
Description: c-Met Receptor Tyrosine Kinase Activity Assay (NADH Read-Out):
Recombinant human c-Met protein (Invitrogen, Carlsbad, Calif., USA) is used. As substrate for the kinase reaction the peptide KKKSPGEYVNIEFG (JPT, Germany) is used. For the assay, 1 μL of a 51-fold concentrated solution of the test compound in DMSO is pipetted into a white 384-well microtiter plate (Greiner Bio-One, Frickenhausen, Germany). 25 μL of a solution of c-Met (final concentration 30 nM) and pyruvate kinase/lactate dehydrogenase (Roche Diagnostics, Mannheim, Germany; final concentration 8 mg/L) in assay buffer [3-(N-morpholino)propanesulfonic acid (MOPS), 50 mM, pH 7; MgCl2, 10 mM; bovine serum albumin (BSA), 0.01%; Triton X 100, 0.01%; DTT, 2 mM] are added, and the mixture is incubated for 5 min at room temperature. Then, the kinase reaction is started by the addition of 25 μL of a solution of adenosine triphosphate (ATP, final concentration 30 μM), substrate (final concentration 100 μM), nicotinamide adenine dinucleo-tide (NADH, final concentration 50 μM) and dithiothreitol (DTT, final concentration 2 mM) in assay buffer, and the resulting mixture is incubated for a reaction time of 100 min at 32° C.
Subsequently, the amount of phosphorylated substrate is evaluated by measurement of the decrease of NADH fluorescence. Therefore, the fluorescence emissions at 465 nm after excitation at 340 nm is measured in a fluorescence reader, e.g. Tecan Ultra (Tecan, Männedorf, Switzerland). The data are normalised (enzyme reaction without inhibitor=0% inhibition; all other assay components but no enzyme=100% inhibition).

[2] = Pharmacokinetics after peroral administration of test compounds; format: in vivo, rat; conditions: for in vivo PK, rat p.o. F / in vivo PK, rat p.o. AUCnorm: male Wistar rats; for in vivo PK, rat p.o. F: bioavailability; for in vivo PK, rat p.o. AUCnorm: dose and body weight-normalized AUC; for Fraction absorbed fabs, calc: rat p.o., fabs,calc=[F/Fmax,calc]*100
Description: Pharmacokinetics after Peroral Administration of Test Compounds: Male Wistar rats (Harlan Laboratories) are anesthetized and a catheter is inserted into the jugular vein of the rat. The next day, a defined dose of the test compound is administered perorally. Blood samples are collected through the jugular catheter during the next 24 h (8-11 time points). Blood is centrifuged in heparin-tubes, and each plasma sample is treated with acetonitrile for protein precipitation. After centrifugation, the test compound in the supernatant is quantified using an LC-MS/MS method. The determined plasma concentrations are used for the determination of pharmacokinetic parameters, such as AUC (area under the plasma concentration vs. time curve), Cmax (highest test compound concentration observed in plasma following administration), t1/2 (half-life) and F (bioavailability). The fraction of the dose absorbed (fabs,calc) is calculated by the equation fabs,calc=[F/Fmax,calc]*100, wherein F is the determined bioavailability after peroral administration and Fmax,calc is the theoretically maximum achievable bioavailability considering the determined blood clearance and assuming that the test compound is completely absorbed.

Chain of Recombinant human c-Met protein (P08581 25-1390): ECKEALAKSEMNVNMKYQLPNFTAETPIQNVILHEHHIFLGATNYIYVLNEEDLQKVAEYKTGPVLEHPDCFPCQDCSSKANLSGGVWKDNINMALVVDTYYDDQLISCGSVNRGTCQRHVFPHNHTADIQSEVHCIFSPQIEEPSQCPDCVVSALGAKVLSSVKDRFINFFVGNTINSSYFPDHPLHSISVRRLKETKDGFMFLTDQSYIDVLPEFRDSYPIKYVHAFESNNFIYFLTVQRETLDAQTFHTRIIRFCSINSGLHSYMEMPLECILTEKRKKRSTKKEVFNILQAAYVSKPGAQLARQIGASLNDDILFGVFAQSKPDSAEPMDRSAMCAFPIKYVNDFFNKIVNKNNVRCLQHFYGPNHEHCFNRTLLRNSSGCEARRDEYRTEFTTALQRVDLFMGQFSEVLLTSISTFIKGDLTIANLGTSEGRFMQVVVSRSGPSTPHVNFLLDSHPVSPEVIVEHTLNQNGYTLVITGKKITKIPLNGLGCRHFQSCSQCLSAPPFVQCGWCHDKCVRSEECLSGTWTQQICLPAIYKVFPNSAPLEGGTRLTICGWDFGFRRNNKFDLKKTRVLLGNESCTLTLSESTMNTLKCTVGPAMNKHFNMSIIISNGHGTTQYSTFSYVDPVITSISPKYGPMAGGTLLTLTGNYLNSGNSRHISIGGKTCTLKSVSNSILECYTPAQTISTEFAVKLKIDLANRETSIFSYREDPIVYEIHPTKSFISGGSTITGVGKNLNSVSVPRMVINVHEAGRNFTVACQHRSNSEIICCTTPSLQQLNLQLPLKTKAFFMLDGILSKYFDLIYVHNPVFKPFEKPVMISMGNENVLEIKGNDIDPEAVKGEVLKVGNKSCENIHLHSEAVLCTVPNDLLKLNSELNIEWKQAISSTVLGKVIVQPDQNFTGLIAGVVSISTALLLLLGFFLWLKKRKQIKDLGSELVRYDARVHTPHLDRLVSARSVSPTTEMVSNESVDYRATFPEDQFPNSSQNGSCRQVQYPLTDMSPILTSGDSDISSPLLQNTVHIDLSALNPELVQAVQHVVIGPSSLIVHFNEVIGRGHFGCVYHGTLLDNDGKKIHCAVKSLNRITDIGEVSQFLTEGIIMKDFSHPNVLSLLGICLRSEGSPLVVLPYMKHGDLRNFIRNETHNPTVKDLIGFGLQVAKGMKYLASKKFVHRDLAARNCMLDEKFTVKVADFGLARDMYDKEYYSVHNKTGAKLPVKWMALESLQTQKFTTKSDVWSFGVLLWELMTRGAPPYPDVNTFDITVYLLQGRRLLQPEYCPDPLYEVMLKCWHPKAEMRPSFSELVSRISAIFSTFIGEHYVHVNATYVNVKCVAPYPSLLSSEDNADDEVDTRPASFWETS

IC50 [1] | in vivo PK, rat p.o. F [2] | Fraction absorbed fabs, calc [2] | Structure (SMILES) | in vivo PK, rat p.o. AUCnorm [2]
6 nM | 33% | 131% | CC1=C(C#N)C(c2ccc3[nH]nc(C)c3c2)C(C#N)=C(C(F)F)N1 (single isomer, unassigned) [Example 3, 2-(Difluoromethyl)-6-methyl-4-(3-methyl-1H-indazol-5-yl)-1,4-dihydropyridine-3,5-dicarbonitrile] | 0.16 kg·h/L
12 nM | 62% | 104% | CC1=C(C#N)C(c2ccc3[nH]nc(C)c3c2)C(C#N)=C(C(F)(F)F)N1 (single isomer, unassigned) [Example 6] | 0.70 kg·h/L
26 nM | 62% | 67% | Cc1n[nH]c2cc(F)c(C3C(C#N)=C(C(F)F)NC(C(F)F)=C3C#N)cc12 [Example 14, 2,6-Bis(difluoromethyl)-4-(6-fluoro-3-methyl-1H-indazol-5-yl)-1,4-dihydropyridine-3,5-dicarbonitrile] | 4.73 kg·h/L
